“And” between values parts separate entries of the source, which are not always exact repeats. Equal values may be shown once.
What was measured:
[1] = tested on: VEGFR; details: cited from earlier work
[2] = tested on: plasma protein; details: cited from earlier work
[3] = cited from earlier work
[4] = tested on: hepatocellular carcinoma; details: phase III, HCC patients, compared to sorafenib; cited from earlier work
[5] = tested on: hepatocellular carcinoma; details: 50 mg q.d. in 4/2 weeks schedule, advanced HCC; cited from earlier work
[6] = tested on: HCC tumors; assay: Tumor volume by DCE-MRI in HCC patients; type: in vivo, human; details: duration of the trial, vs baseline
[7] = tested on: sVEGFR2; assay: PD indirect response modeling of sVEGFR2 plasma concentrations; type: in vivo, human; details: HCC patients, following treatment, mean baseline 15.7 µg/L
[8] = tested on: hepatocellular carcinoma; assay: Time-to-tumor progression in HCC patients; type: in vivo, human; details: 37.5 mg q.d. with TACE (doxorubicin)
[9] = Hematological toxicities in the phase II pilot study; type: in vivo, human; details: HCC patients, 37.5 mg q.d.

CCNCCNC(=O)c1c(C)[nH]c(/C=C2\C(=O)Nc3ccc(F)cc32)c1C [SU12662]
potency relative to parent drug [1]: equipotent to the parent drug
fb, bound fraction to plasma protein [2]: 0.95
Q/Fperipheral, intercompartmental clearance (RSE%) ([3]; fixed to literature value): 27.7 (26) L/h
V2/Fperipheral, peripheral volume of distribution (RSE%) ([3]; fixed to literature value): 345 (22) L

CCN(CC)CCNC(=O)c1c(C)[nH]c(/C=C2\C(=O)Nc3ccc(F)cc32)c1C [Sunitinib, Sunitinib malate]
primary overall survival endpoint [4]: failed its primary OS endpoint
toxicities [4]: more frequent toxicities than sorafenib
median TTP [5]: 5.3 months
HCC tumor volumes under treatment [6]: remained relatively unchanged compared to their baseline values
observed plasma concentrations of sVEGFR2 [7]: gradually decreased over time
median observed TTP [8]: 7 months and 8 months
hematological toxicities [9]: absence of hematological toxicities
fb, bound fraction to plasma protein [2]: 0.9
Q/Fperipheral, intercompartmental clearance (RSE%) ([3]; fixed to literature value): 6.37 (18) L/h
V2/Fperipheral, peripheral volume of distribution (RSE%) ([3]; fixed to literature value): 588 (8.7) L
ka, first-order absorption rate constant (RSE%) ([3]; fixed to literature value): 0.195 (6.8) 1/h
fM, fraction of drug metabolized into the active metabolite SU12662 ([3]; fixed): 0.21

From paper PMC5131886 (CPT: Pharmacometrics & Systems Pharmacology, 2016)
